Among the data in patent US20050075375A1 (priority 2003, published 2005) are EC50 values, retold here.

What is called EC50 is the concentration at which the effect is half-maximal.

This experiment deals with monocistronic NK5.1 HCV replicon in Huh7 cells. The experiment in a line: HCV replicon assay, monocistronic replicon cell line. The class given is cell-based, hepatitis C virus. Particulars: Hepatitis C virus, Huh-7, 72 h; table T3 (compounds 471-640); monocistronic replicon in Huh7 cells, 3 days incubation, HCV RNA/GAPDH RNA by TaqMan RT-PCR; read-out: Mono EC50 Median. The gist of the method:
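Huh7 cells carrying the monocistronic NK5.1 replicon, seeded 24 h before dosing, were exposed to six-point half-log compound series (0.6% DMSO) for 3 days at 37 °C. Replicon RNA was quantified by TaqMan RT-PCR, normalised to GAPDH and compared with DMSO controls to derive EC50.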
On the technique in general: In antiviral work, replicon cells carry a viral genome segment that copies itself.

Take `O=[N+]([O-])c1cccnc1-c1n[nH]c(-c2c(O)ccc3ccccc23)n1` [Compound 558, 1-[5-(3-Nitro-pyridin-2-yl)-2H-[1,2,4]triazol-3-yl]-naphthalen-2-ol]: the EC50 was above 3.2 µM.

Take `CC(C)(C)c1ccc(O)c(-c2nc(-c3ncccn3)n[nH]2)c1` [Compound 559, 4-tert-Butyl-2-(5-pyrimidin-2-yl-2H-[1,2,4]triazol-3-yl)-phenol]: the EC50 was above 32 µM.

Turning to `O=[N+]([O-])c1ccc(O)c(-c2nc(-c3ncccn3)n[nH]2)c1` [Compound 560, 4-Nitro-2-(5-pyrimidin-2-yl-2H-[1,2,4]triazol-3-yl)-phenol], the EC50 is above 32 µM.

Consider `Oc1ccc(F)cc1-c1nc(-c2ncccn2)n[nH]1` [Compound 561, 4-Fluoro-2-(5-pyrimidin-2-yl-2H-[1,2,4]triazol-3-yl)-phenol], for which the half-maximal effective concentration (EC50) is above 32 µM.

Take `COc1ccc(O)c(-c2nc(-c3ncccn3)n[nH]2)c1` [Compound 562, 4-Methoxy-2-(5-pyrimidin-2-yl-2H-[1,2,4]triazol-3-yl)-phenol]: the EC50 was above 32 µM.

On to `Oc1ccc(Cl)cc1-c1nc(-c2ncccn2)n[nH]1` [Compound 563, 4-Chloro-2-(5-pyrimidin-2-yl-2H-[1,2,4]triazol-3-yl)-phenol], for which the concentration for a half-maximal effect (EC50) turned out to be 6.4 µM.

For the compound `CCOc1cccc(-c2nc(-c3ncccn3)n[nH]2)c1O` [Compound 564, 6-Ethoxy-2-(5-pyrimidin-2-yl-2H-[1,2,4]triazol-3-yl)-phenol], the EC50 is above 32 µM.

Turning to `Oc1cc(OCc2ccccc2)ccc1-c1nc(-c2ncccn2)n[nH]1` [Compound 565, 5-Benzyloxy-2-(5-pyrimidin-2-yl-2H-[1,2,4]triazol-3-yl)-phenol], the concentration giving a half-maximal response (EC50) is 26 µM.

As for `Oc1ccc(Br)cc1-c1nc(-c2ncccn2)n[nH]1` [Compound 566, 4-Bromo-2-(5-pyrimidin-2-yl-2H-[1,2,4]triazol-3-yl)-phenol], the EC50 came to 5.9 µM.

In the case of `Cc1ccc(O)c(-c2nc(-c3ncccn3)n[nH]2)c1` [Compound 567, 4-Methyl-2-(5-pyrimidin-2-yl-2H-[1,2,4]triazol-3-yl)-phenol], the concentration giving a half-maximal response (EC50) was above 32 µM.

For `COc1ccc(-c2nc(-c3ncccn3)n[nH]2)c(O)c1` [Compound 568, 5-Methoxy-2-(5-pyrimidin-2-yl-2H-[1,2,4]triazol-3-yl)-phenol], the EC50 is above 32 µM.

For the compound `Oc1ccccc1-c1nc(-c2ncccn2)n[nH]1` [Compound 569, 2-(5-pyrimidin-2-yl-2H-[1,2,4]triazol-3-yl)-phenol], the EC50 is above 32 µM.

For the compound `COc1cccc(-c2nc(-c3ncccn3)n[nH]2)c1O` [Compound 570, 6-Methoxy-2-(5-pyrimidin-2-yl-2H-[1,2,4]triazol-3-yl)-phenol], the EC50 was above 32 µM.

Consider `CCN(CC)c1ccc(-c2nc(-c3ncccn3)n[nH]2)c(O)c1` [Compound 571, 5-Diethylamino-2-(5-pyrimidin-2-yl-2H-[1,2,4]triazol-3-yl)-phenol], for which the EC50 is 18 µM.

As for `Oc1ccc(O)c(-c2nc(-c3ncccn3)n[nH]2)c1` [Compound 572, 4-Hydroxy-2-(5-pyrimidin-2-yl-2H-[1,2,4]triazol-3-yl)-phenol], the EC50 is above 32 µM.

On to `Oc1ccc2ccccc2c1-c1nc(-c2ncccn2)n[nH]1` [Compound 573, 1-(5-pyrimidin-2-yl-2H-[1,2,4]triazol-3-yl)-naphthalen-2-ol], for which the EC50 turned out to be 3.5 µM.

Consider `Oc1c(-c2nc(-c3ncccn3)n[nH]2)ccc2ccccc12` [Compound 574, 2-(5-Pyrimidin-2-yl-2H-[1,2,4]triazol-3-yl)-naphthalen-1-ol], for which the EC50 was above 32 µM.

For `CC(C)(C)c1ccc(O)c(-c2nc(-c3cnccn3)n[nH]2)c1` [Compound 575, 4-tert-Butyl-2-(5-pyrazin-2-yl-2H-[1,2,4]triazol-3-yl)-phenol], the concentration giving a half-maximal response (EC50) came to 9 µM.

Turning to `O=[N+]([O-])c1ccc(O)c(-c2nc(-c3cnccn3)n[nH]2)c1` [Compound 576, 4-Nitro-2-(5-pyrazin-2-yl-2H-[1,2,4]triazol-3-yl)-phenol], the EC50 turned out to be 16 µM.

With `Oc1ccc(F)cc1-c1nc(-c2cnccn2)n[nH]1` [Compound 577, 4-Fluoro-2-(5-pyrazin-2-yl-2H-[1,2,4]triazol-3-yl)-phenol], the EC50 was 18 µM.

With `COc1ccc(O)c(-c2nc(-c3cnccn3)n[nH]2)c1` [Compound 578, 4-Methoxy-2-(5-pyrazin-2-yl-2H-[1,2,4]triazol-3-yl)-phenol], the EC50 was above 32 µM.

In the case of `Oc1ccc(Cl)cc1-c1nc(-c2cnccn2)n[nH]1` [Compound 579, 4-Chloro-2-(5-pyrazin-2-yl-2H-[1,2,4]triazol-3-yl)-phenol], the 50% effective concentration (EC50) is 5.8 µM.

`CCOc1cccc(-c2nc(-c3cnccn3)n[nH]2)c1O` [Compound 580, 6-Ethoxy-2-(5-pyrazin-2-yl-2H-[1,2,4]triazol-3-yl)-phenol]: the half-maximal effective concentration (EC50) is above 32 µM.

In the case of `Oc1cc(OCc2ccccc2)ccc1-c1nc(-c2cnccn2)n[nH]1` [Compound 581, 5-Benzyloxy-2-(5-pyrazin-2-yl-2H-[1,2,4]triazol-3-yl)-phenol], the EC50 was above 32 µM.

As to `Oc1ccc(Br)cc1-c1nc(-c2cnccn2)n[nH]1` [Compound 582, 4-Bromo-2-(5-pyrazin-2-yl-2H-[1,2,4]triazol-3-yl)-phenol], the EC50 worked out at 18 µM.

In the case of `Cc1ccc(O)c(-c2nc(-c3cnccn3)n[nH]2)c1` [Compound 583, 4-Methyl-2-(5-pyrazin-2-yl-2H-[1,2,4]triazol-3-yl)-phenol], the EC50 is above 32 µM.

Take `COc1ccc(-c2nc(-c3cnccn3)n[nH]2)c(O)c1` [Compound 584, 5-Methoxy-2-(5-pyrazin-2-yl-2H-[1,2,4]triazol-3-yl)-phenol]: the EC50 is above 32 µM.

As to `Oc1ccccc1-c1nc(-c2cnccn2)n[nH]1` [Compound 585, 2-(5-pyrazin-2-yl-2H-[1,2,4]triazol-3-yl)-phenol], the EC50 was above 32 µM.

Consider `COc1cccc(-c2nc(-c3cnccn3)n[nH]2)c1O` [Compound 586, 6-Methoxy-2-(5-pyrazin-2-yl-2H-[1,2,4]triazol-3-yl)-phenol], for which the EC50 is above 32 µM.

As to `CCN(CC)c1ccc(-c2nc(-c3cnccn3)n[nH]2)c(O)c1` [Compound 587, 5-Diethylamino-2-(5-pyrazin-2-yl-2H-[1,2,4]triazol-3-yl)-phenol], the EC50 worked out at 23 µM.

For `Oc1ccc(O)c(-c2nc(-c3cnccn3)n[nH]2)c1` [Compound 588, 4-Hydroxy-2-(5-pyrazin-2-yl-2H-[1,2,4]triazol-3-yl)-phenol], the EC50 is above 32 µM.

In the case of `Oc1ccc2ccccc2c1-c1nc(-c2cnccn2)n[nH]1` [Compound 589, 1-(5-pyrazin-2-yl-2H-[1,2,4]triazol-3-yl)-naphthalen-2-ol], the EC50 was 7 µM.

Consider `Oc1c(Br)cc(Br)cc1-c1nc(-c2cnccn2)n[nH]1` [Compound 590, 2,4-Dibromo-6-(5-pyrazin-2-yl-2H-[1,2,4]triazol-3-yl)-phenol], for which the EC50 amounted to 14 µM.

Regarding `Oc1c(-c2nc(-c3cnccn3)n[nH]2)ccc2ccccc12` [Compound 591, 2-(5-pyrazin-2-yl-2H-[1,2,4]triazol-3-yl)-naphthalen-1-ol], the EC50 worked out at 16 µM.

For `Nc1ccc(-c2n[nH]c(-c3cc(Br)ccc3O)n2)nc1` [Compound 592, 2-[5-(5-Amino-pyridin-2-yl)-2H-[1,2,4]triazol-3-yl]-4-bromo-phenol], the EC50 was above 32 µM.
